Experimental data taken from the supplement of paper PMC10307832.

Assays:
Experiment in all cases: relative viability (nuclei count vs DMSO), 5 days (fraction); higher = more cells survive
[1] = compound: Cc1ccc(NC(=O)c2ccc(CN3CCN(C)CC3)cc2)cc1Nc1nccc(-c2cccnc2)n1 [Imatinib]
Procedure, shortened: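 After an overnight hold at 37 °C, lung cancer cell lines in 1536-well plates were pinned with five library-drug doses (not always all listed), each √10 from the next, on vehicle-anchored plates. The cells stayed 5 days without fresh medium, then a one-step fix, permeabilisation and Hoechst stain preceded 4× imaging and MetaXpress nuclear counts. A plate passed only with control CV under 25% and at least one doubling. Viability is the median, over plates, of treated-well nuclei relative to vehicle-well nuclei.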

[2] = compound: Cc1ccc(NC(=O)c2ccc(CN3CCN(C)CC3)cc2)cc1Nc1nccc(-c2cccnc2)n1 [Imatinib] + CS(=O)(=O)N1CCN(Cc2cc3nc(-c4cccc5[nH]ncc45)nc(N4CCOCC4)c3s2)CC1 [Pictilisib] (partner 1 µM)
Procedure, shortened: (§1)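 Relative viability equals treated-well nuclei counts divided by vehicle-well nuclei counts. Counts came from 4× images of lung cancer cell lines grown in 1536-well plates for 5 days after pin-tool dosing on the day after seeding. Dosing used one drug alone or a fixed anchor-drug dose plus five library-drug doses (not always all listed) in √10 steps, and values are medians of duplicate plates.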

[3] = compound: Cc1ccc(NC(=O)c2ccc(CN3CCN(C)CC3)cc2)cc1Nc1nccc(-c2cccnc2)n1 [Imatinib] + COc1cc2c(Oc3ccc(NC(=O)C4(C(=O)Nc5ccc(F)cc5)CC4)cc3F)ccnc2cc1OCCCN1CCOCC1 [Foretinib] (partner 0.25 µM)
Procedure, shortened: as §1

[4] = compound: Cc1ccc(NC(=O)c2ccc(CN3CCN(C)CC3)cc2)cc1Nc1nccc(-c2cccnc2)n1 [Imatinib] + CS(=O)(=O)CCNCc1ccc(-c2ccc3ncnc(Nc4ccc(OCc5cccc(F)c5)c(Cl)c4)c3c2)o1 [Lapatinib] (partner 2 µM)
Procedure, shortened: as §1

[5] = compound: Cc1ccc(NC(=O)c2ccc(CN3CCN(C)CC3)cc2)cc1Nc1nccc(-c2cccnc2)n1 [Imatinib] + CC1(C)CCC(c2ccc(Cl)cc2)=C(CN2CCN(c3ccc(C(=O)NS(=O)(=O)c4ccc(N[C@H](CCN5CCOCC5)CSc5ccccc5)c(S(=O)(=O)C(F)(F)F)c4)cc3)CC2)C1 [Navitoclax] (partner 0.5 µM)
Procedure, shortened: as §1

[6] = compound: Cc1ccc(NC(=O)c2ccc(CN3CCN(C)CC3)cc2)cc1Nc1nccc(-c2cccnc2)n1 [Imatinib] + O=C(c1cc(Cc2n[nH]c(=O)c3ccccc23)ccc1F)N1CCN(C(=O)C2CC2)CC1 [Olaparib] (partner 8 µM)
Procedure, shortened: as §1

[7] = compound: Cc1ccc(NC(=O)c2ccc(CN3CCN(C)CC3)cc2)cc1Nc1nccc(-c2cccnc2)n1 [Imatinib] + O=C(CCCCCCC(=O)Nc1ccccc1)NO [Vorinostat] (partner 1 µM)
Procedure, shortened: as §1

[8] = compound: Cc1ccc(NC(=O)c2ccc(CN3CCN(C)CC3)cc2)cc1Nc1nccc(-c2cccnc2)n1 [Imatinib] + CC(C)C[C@H](NC(=O)[C@H](Cc1ccccc1)NC(=O)c1cnccn1)B(O)O [Bortezomib] (partner 0.002 µM)
Procedure, shortened: as §1

[9] = compound: Cc1ccc(NC(=O)c2ccc(CN3CCN(C)CC3)cc2)cc1Nc1nccc(-c2cccnc2)n1 [Imatinib] + C[C@@H](Oc1cc(-c2cnn(C3CCNCC3)c2)cnc1N)c1c(Cl)ccc(F)c1Cl [Crizotinib] (partner 1 µM)
Procedure, shortened: as §1

[10] = compound: Cc1ccc(NC(=O)c2ccc(CN3CCN(C)CC3)cc2)cc1Nc1nccc(-c2cccnc2)n1 [Imatinib] + Cc1nc(NC(=O)N2CCC[C@H]2C(N)=O)sc1-c1ccnc(C(C)(C)C(F)(F)F)c1 [Alpelisib] (partner 2 µM)
Procedure, shortened: as §1

[11] = compound: Cc1ccc(NC(=O)c2ccc(CN3CCN(C)CC3)cc2)cc1Nc1nccc(-c2cccnc2)n1 [Imatinib] + C[C@]1(O)C[C@@H](c2nc(-c3ccc4ccc(-c5ccccc5)nc4c3)c3c(N)nccn32)C1 [Linsitinib] (partner 1 µM)
Procedure, shortened: as §1

[12] = compound: Cc1ccc(NC(=O)c2ccc(CN3CCN(C)CC3)cc2)cc1Nc1nccc(-c2cccnc2)n1 [Imatinib] + Cc1cc(Nc2cc(N3CCN(C)CC3)nc(Sc3ccc(NC(=O)C4CC4)cc3)n2)n[nH]1 [Tozasertib] (partner 0.1 µM)
Procedure, shortened: as §1

[13] = compound: Cc1ccc(NC(=O)c2ccc(CN3CCN(C)CC3)cc2)cc1Nc1nccc(-c2cccnc2)n1 [Imatinib] + Nc1ncn([C@H]2C[C@H](O)[C@@H](CO)O2)c(=O)n1 [Decitabine] (partner 2 µM)
Procedure, shortened: as §1

[14] = compound: Cc1ccc(NC(=O)c2ccc(CN3CCN(C)CC3)cc2)cc1Nc1nccc(-c2cccnc2)n1 [Imatinib] + N=C(N)NC(=N)NCCc1ccccc1 [Phenformin] (partner 250 µM)
Procedure, shortened: as §1

[15] = compound: Cc1ccc(NC(=O)c2ccc(CN3CCN(C)CC3)cc2)cc1Nc1nccc(-c2cccnc2)n1 [Imatinib] + CCNC(=O)c1noc(-c2cc(C(C)C)c(O)cc2O)c1-c1ccc(CN2CCOCC2)cc1 [Luminespib] (partner 0.01 µM)
Procedure, shortened: as §1

[16] = compound: Cc1ccc(NC(=O)c2ccc(CN3CCN(C)CC3)cc2)cc1Nc1nccc(-c2cccnc2)n1 [Imatinib] + COc1cccc2cc(-c3nc([C@H]4CC[C@H](C(=O)O)CC4)n4ncnc(N)c34)[nH]c12 [OSI-027] (partner 0.5 µM)
Procedure, shortened: as §1

With IA-LM the relative viability ([1]; 0.02 µM) was 1.04, the relative viability ([1]; 0.06325 µM) was 1.02 and the relative viability ([1]; 0.2 µM) was 0.936. The relative viability ([1]; 0.6325 µM) was 1.27, the relative viability ([1]; 2 µM) was 0.853 and the relative viability ([2]; first compound 0.02 µM) was 0.431. The relative viability ([2]; first compound 0.06325 µM) was 0.497, the relative viability ([2]; first compound 0.2 µM) was 0.317 and the relative viability ([2]; first compound 0.6325 µM) was 0.586. The relative viability ([2]; first compound 2 µM) was 0.373, the relative viability ([3]; first compound 0.02 µM) was 1.34 and the relative viability ([3]; first compound 0.06325 µM) was 1.2. The relative viability ([3]; first compound 0.2 µM) was 1.06, the relative viability ([3]; first compound 0.6325 µM) was 1.4 and the relative viability ([3]; first compound 2 µM) was 1.17. It also gave a relative viability ([4]; first compound 0.02 µM) of 1.01, a relative viability ([4]; first compound 0.06325 µM) of 1.23 and a relative viability ([4]; first compound 0.2 µM) of 0.656. It also gave a relative viability ([4]; first compound 0.6325 µM) of 1.31, a relative viability ([4]; first compound 2 µM) of 0.719 and a relative viability ([5]; first compound 0.02 µM) of 0.909. The relative viability ([5]; first compound 0.06325 µM) was 0.813, the relative viability ([5]; first compound 0.2 µM) was 1.05 and the relative viability ([5]; first compound 0.6325 µM) was 0.83. It also gave a relative viability ([5]; first compound 2 µM) of 0.754, a relative viability ([6]; first compound 0.02 µM) of 0.917 and a relative viability ([6]; first compound 0.06325 µM) of 0.884. For the same cell line, the relative viability ([6]; first compound 0.2 µM) was 0.996, the relative viability ([6]; first compound 0.6325 µM) was 0.977 and the relative viability ([6]; first compound 2 µM) was 0.734. For the same cell line, the relative viability ([7]; first compound 0.06325 µM) was 0.357, the relative viability ([7]; first compound 0.2 µM) was 1.14 and the relative viability ([7]; first compound 0.6325 µM) was 1.16. It also gave a relative viability ([7]; first compound 2 µM) of 0.923, a relative viability ([8]; first compound 0.02 µM) of 0.767 and a relative viability ([8]; first compound 0.06325 µM) of 1.03. For the same cell line, the relative viability ([8]; first compound 0.2 µM) was 0.937, the relative viability ([8]; first compound 0.6325 µM) was 0.744 and the relative viability ([8]; first compound 2 µM) was 0.784. For the same cell line, the relative viability ([9]; first compound 0.02 µM) was 0.991, the relative viability ([9]; first compound 0.06325 µM) was 0.744 and the relative viability ([9]; first compound 0.2 µM) was 0.999. For the same cell line, the relative viability ([9]; first compound 0.6325 µM) was 0.781, the relative viability ([9]; first compound 2 µM) was 0.735 and the relative viability ([10]; first compound 0.02 µM) was 0.838. The relative viability ([10]; first compound 0.06325 µM) was 1.1, the relative viability ([10]; first compound 0.2 µM) was 0.928 and the relative viability ([10]; first compound 0.6325 µM) was 0.967. For the same cell line, the relative viability ([10]; first compound 2 µM) was 0.702, the relative viability ([11]; first compound 0.02 µM) was 0.688 and the relative viability ([11]; first compound 0.06325 µM) was 0.652. The relative viability ([11]; first compound 0.2 µM) was 0.561, the relative viability ([11]; first compound 0.6325 µM) was 1.38 and the relative viability ([11]; first compound 2 µM) was 0.593.
In the case of NCI-H522, the relative viability ([12]; first compound 0.06325 µM) is reported as 0.501, the relative viability ([12]; first compound 0.2 µM) is reported as 0.524 and the relative viability ([12]; first compound 0.6325 µM) is reported as 0.553. For the same cell line, the relative viability ([12]; first compound 2 µM) was 0.588, the relative viability ([13]; first compound 0.02 µM) was 0.678 and the relative viability ([13]; first compound 0.2 µM) was 0.616. It also gave a relative viability ([13]; first compound 0.6325 µM) of 0.577, a relative viability ([13]; first compound 2 µM) of 0.675 and a relative viability ([14]; first compound 0.02 µM) of 0.679. The relative viability ([14]; first compound 0.06325 µM) was 0.554, the relative viability ([14]; first compound 0.2 µM) was 0.626 and the relative viability ([14]; first compound 0.6325 µM) was 0.613. It also gave a relative viability ([6]; first compound 0.2 µM) of 0.641, a relative viability ([6]; first compound 0.6325 µM) of 0.606 and a relative viability ([15]; first compound 0.02 µM) of 1.11. For the same cell line, the relative viability ([15]; first compound 0.06325 µM) was 1.16, the relative viability ([15]; first compound 0.2 µM) was 1.14 and the relative viability ([15]; first compound 0.6325 µM) was 1.15. The relative viability ([15]; first compound 2 µM) was 1.11, the relative viability ([16]; first compound 0.02 µM) was 1.34 and the relative viability ([16]; first compound 0.06325 µM) was 0.505. It also gave a relative viability ([16]; first compound 2 µM) of 0.666.
